Experimental data from US10449198B2, “Method for treating pain” (The University of Liverpool, priority 2016, dated 2019).

How the values were obtained:
neuropathic rats [1] = experiment: Neuropathic pain model (partial sciatic nerve ligation): tactile allodynia / mechanical paw withdrawal thresholds; format: in vivo, rat
Method: Fasted, male, Wistar rats. n=6/group. Vehicle: 10% DMSO/10% Solutol HS15/80% saline. 10 ml/kg p.o. One-way ANOVA, comparison with time-matched vehicle group using Tukey's HSD test, *p<0.05, **p<0.01, ***p<0.001
Protocol for study of compounds in a model of neuropathic pain: reversal of tactile allodynia.
(§1) • 1) In rats a peripheral neuropathy was induced by partial ligation of the sciatic nerve in one hind limb. • 2) Two weeks (12-15 days) after induction of peripheral neuropathy stable mechanical (tactile) allodynia was induced in the hind paw of the affected limb. • 3) Five treatment groups of male SD rats (n=8) were used: vehicle control (drug formulation), 3 drug doses, and a positive control, lamotrigine (30 mg/kg). Animals were randomized between groups and the experiment was carried out using blinded conditions. The study was split with n=4/group in each experiment. • 4) Baseline behavioural measurements were obtained prior to surgery and at intervals post-surgery. Predose behavioural measurements were obtained by measuring paw withdrawal thresholds 12-15 days following nerve ligation. • 5) Compound efficacy was determined by measuring paw withdrawal thresholds at specified intervals following vehicle/compound treatment. Animals
All animal procedures were carried out in accordance with the UK Animals (Scientific Procedures) Act 1986 and associated guidelines. Animals were maintained in a controlled lighting environment and given food and water ad libitum. Male Sprague Dawley rats (120-140 g at time of surgery) were used.
Tests compounds as well as lamotrigine (30 mg/kg, volume: 10 ml/kg)) were prepared in the designated formulation (10% DMSO, Solutol HS 15/80% and 0.9% saline for p.o. administration) and administered via the chosen route.
Allodynia was examined in the model of neuropathic pain induced by partial ligation of the sciatic nerve as described by Seltzer et al (1990). […]
Tactile allodynia was assessed by measuring withdrawal thresholds to calibrated von Frey hairs. […] The lowest amount of force required to elicit a response was recorded as the paw withdrawal threshold (in grams).
Allodynia was measured on both the ipsilateral (ligated) and contralateral (non-ligated) paw prior to (pre-dose) and at a set time point following compound or vehicle administration (post-dose). […]
(§2) Compound/vehicle were administered at specified doses. Following treatment, further readings were taken; 1, 3, 6 and 24 hour after p.o. administration.
(§3) Raw data were analysed using parametric statistical tests, including one-way analysis of variance (ANOVA) followed by Tukey's post hoc test repeated measures of ANOVA. […]

neuropathic rats [2] = experiment: Neuropathic pain model (partial sciatic nerve ligation): cold hyperalgesia, 10° C. cold plate paw withdrawal latency; format: in vivo, rat
Method: Fasted, male, Wistar rats. n=6/group. Vehicle: 10% DMSO/10% Solutol HS15/80% saline. 10 ml/kg p.o. One-way ANOVA, comparison with time-matched vehicle group using Tukey's HSD test, *p<0.05, **p<0.01, ***p<0.001.
as §1, with “treatment. Animals […]” for “treatment. Animals”
as §2
Cold sensitivity was assessed using a commercially available cold-plate (Ugo Basile, Milan). The cold-plate was set according to pre-determined calibration data using a surface temperature probe to correlate set temperature to actual surface temperature over a wide temperature range (−5° C. to 26° C.). […] Paw withdrawal latencies were determined with the cold-plate set at 10° C. […] The end point was taken as the withdrawal of the paw and recorded as the withdrawal latency for the ipsilateral and the contralateral paw. […]
as §3

α1 glycine = molecular target: T1, α1 glycine (Homo sapiens, UniProt P23415); experiment: Glycine receptor activity, two-electrode voltage-clamp in Xenopus laevis oocytes; format: cell-based; details: TEVC, holding potential −70 mV
T1 construct: expressed in transfected cells; host or cells: Xenopus laevis oocytes (cRNA injection)
T1 sequence (P23415 29-457): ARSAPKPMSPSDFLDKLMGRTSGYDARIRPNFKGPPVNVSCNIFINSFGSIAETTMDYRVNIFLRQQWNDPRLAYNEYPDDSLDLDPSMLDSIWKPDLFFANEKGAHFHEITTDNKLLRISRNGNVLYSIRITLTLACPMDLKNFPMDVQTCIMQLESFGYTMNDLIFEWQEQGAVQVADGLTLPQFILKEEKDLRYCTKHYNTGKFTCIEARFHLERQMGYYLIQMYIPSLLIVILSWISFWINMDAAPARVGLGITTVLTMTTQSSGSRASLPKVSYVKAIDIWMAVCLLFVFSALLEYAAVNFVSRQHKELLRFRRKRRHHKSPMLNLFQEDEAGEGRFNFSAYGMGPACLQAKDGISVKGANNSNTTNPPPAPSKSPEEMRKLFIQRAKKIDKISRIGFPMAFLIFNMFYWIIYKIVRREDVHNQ
Method: Oocytes were surgically removed from adult female Xenopus laevis clawfrogs anaesthetized by immersion in 0.3% tricaine in water (w/v). All protocols were approved by the local animal care and use committee (II25.3-19c20/15; RP Darmstadt, Germany). Stage V and VI Oocytes were dissected and stored in sterile-filtered ND96 medium (composition in mM: 96 NaCl, 2 KCl, 1 CaCl, 1 MgCl, 5 HEPES, pH 7.4) containing gentamycin (50 μg/mL). The oocytes were isolated and enzymatically and maintained as described previously (Grudzinska et al., 2005). Oocytes were injected with 5 ng of cRNA using a Drummond microinjector (Drummond Scientific, Broomall, USA) and incubated in ND96 for 24 h at 18° C. before electrophysiological recording. Two-electrode voltage-clamp (TEVC) with microelectrodes containing 3 M KCl was performed in bath solution at a holding potential of −70 mV as described previously (Laube et al., 2000). […]
Currents were measured with Clampfit 9.2 software (Molecular Devices), Results were analyzed using the KaleidaGraph program (Synergy Software, Reading, Pa.) and GraphPad Prism version 5.0 (GraphPad Software Inc., San Diego, Calif.). […] For propofol and 4-chloropropofol modulation, responses to EC20 glycine after application were analyzed as described previously (Lynagh and Laube, 2014); mean±standard error of the mean (SEM) are reported. […]

[3] = contralateral (non-ligated) paw

SMILES: CC(C)(C)c1cc(C(=O)N2CCOCC2)cc(C(C)(C)C)c1O [Compound 82, (3,5-Di-tert-butyl-4-hydroxyphenyl)(morpholino) methanone]
- Peak reversal of tactile allodynia (neuropathic rats [1]; 30 mg/kg p.o., at 1 h, ipsilateral paw, neuropathic rats): 72%
- Efficacy across doses (cold and mechanical parameters) (neuropathic rats [1]; all three doses, p.o.): good and dose-related efficacy
- Contralateral paw withdrawal thresholds to mechanical pressure (neuropathic rats [1]; [3]): significant increase
- Reversal of mechanical (paw pressure) parameter (neuropathic rats [1]; p.o., neuropathic rats): marked and long-lasting reversal
- Peak reversal of cold hyperalgesia (neuropathic rats [2]; 30 mg/kg p.o., at 1 h, 10° C. cold plate, neuropathic rats): 74%
- Contralateral paw withdrawal latencies to cold (neuropathic rats [2]; [3]): increased
- Reversal of cold (10° C. cold plate) parameter (neuropathic rats [2]; p.o., neuropathic rats): marked and long-lasting reversal
- EC50 (α1 glycine): 0.46 nM
- melting point: 174 to 176 °C
